From EP0428423A2, “Aryloxy alkyl benzenes, processes for their preparation and pharmaceutical compositions containing them” (LIPHA S.A., priority 1989, dated 1991)

How the values were obtained:
[1] = tested on: plasmas riches en plaquettes provenant de sang de rat; test: Platelet anti-aggregation in vitro, ADP-induced (Born aggregometer); assay type: cell-based; settings: in vitro, aggregating agent ADP, rat platelet-rich plasma, 37°; M not defined in the text; mM printed only in the TICLOPIDINE line
Description: Les études ont été réalisées sur des plasmas riches en plaquettes provenant de sang de rat, l'agrégation étant induite par addition d'acide Adénosine diphosphorique. Les courbes néphélométriques d'agrégation sont obtenues en utilisant un agrégomètre de type BORN, le plasma étant placé en incubation à 37° avec agitation continue de 1100 t/mn (cf. BORN G.V.R et CROSS J. - J. Physiol. 168 (1962) 178.

[2] = molecular target: T1, lipoxygénase de soja (Glycine max, UniProt P08170); test: Anti-lipoxygenase action on soybean lipoxygenase; assay type: biochemical
T1 sequence (P08170 1-839): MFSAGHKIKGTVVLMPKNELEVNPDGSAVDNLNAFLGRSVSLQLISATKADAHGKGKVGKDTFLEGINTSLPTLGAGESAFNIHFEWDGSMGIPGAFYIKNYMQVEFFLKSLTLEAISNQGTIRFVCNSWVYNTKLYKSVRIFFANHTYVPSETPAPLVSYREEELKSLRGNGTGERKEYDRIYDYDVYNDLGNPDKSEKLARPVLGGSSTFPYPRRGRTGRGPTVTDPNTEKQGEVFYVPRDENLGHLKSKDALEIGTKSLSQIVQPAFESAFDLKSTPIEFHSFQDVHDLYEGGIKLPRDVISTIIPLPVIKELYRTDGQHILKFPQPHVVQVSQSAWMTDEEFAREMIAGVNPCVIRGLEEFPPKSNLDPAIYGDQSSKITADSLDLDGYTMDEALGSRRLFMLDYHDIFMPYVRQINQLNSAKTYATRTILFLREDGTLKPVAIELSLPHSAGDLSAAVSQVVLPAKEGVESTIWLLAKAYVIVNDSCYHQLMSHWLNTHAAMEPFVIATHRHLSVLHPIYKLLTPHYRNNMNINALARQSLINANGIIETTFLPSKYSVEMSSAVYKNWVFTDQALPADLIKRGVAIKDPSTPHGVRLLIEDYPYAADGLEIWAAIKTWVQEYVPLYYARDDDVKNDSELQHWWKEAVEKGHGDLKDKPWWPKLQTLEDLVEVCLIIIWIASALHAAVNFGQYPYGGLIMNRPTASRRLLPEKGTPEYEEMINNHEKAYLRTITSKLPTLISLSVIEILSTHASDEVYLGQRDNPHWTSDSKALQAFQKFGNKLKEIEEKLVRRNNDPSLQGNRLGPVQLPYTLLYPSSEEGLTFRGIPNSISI
Text: L'action anti-lipoxygénase a été étudiée sur la lipoxygénase de soja selon la méthode décrite par W.L SMITH et W.E LANDS (J. Biol. Chem. 247 (1972) 1038-1047)

[3] = tested on: SOURIS; test: Diuretic activity in the mouse (hourly urine volume, sodium and potassium assay); assay type: in vivo; settings: Mus musculus, po; S = SOURIS; diuretic activity; read-out: Dose minimale active
Text: d'urine sont déterminés toutes les heures. Le dosage de sodium et du potassium est effectué par spectrophotométrie.

[4] = tested on: rats mâles SHR (souche OKAMOTO); test: Antihypertensive action in the non-anaesthetised SHR rat (systolic blood pressure, sphygmomanometric method); assay type: in vivo; settings: A = Aigu, 100 mg/kg PO, 24 h after dosing
Text: L'étude a été effectuée sur des lots de rats mâles SHR (souche OKAMOTO) âgés de 16 semaines. La pression artérielle systolique est déterminée par la méthode sphygmomanométrique (électro sphygmogra- phe NARCO biosystems type PE 300). Les mesures de tension sont réalisées 24 heures après administration d'un composé de formule générale I, la pression artérielle systolique est calculée à partir de la moyenne de 6 à 8 mesures.

[5] = molecular target: T2, COTRANSPORT Na-K (Homo sapiens, UniProt P55011); test: Na-K cotransport of human erythrocytes; assay type: cell-based, ERYTHROCYTES HUMAINS; settings: human erythrocytes; read-out: EFFET SUR LE COTRANSPORT Na-K IC 50
T2 construct: systèmes de transport du sodium et du potassium des érythrocytes humains; endogenous in cells; host or cells: human erythrocytes
T2 sequence (P55011 1-1212): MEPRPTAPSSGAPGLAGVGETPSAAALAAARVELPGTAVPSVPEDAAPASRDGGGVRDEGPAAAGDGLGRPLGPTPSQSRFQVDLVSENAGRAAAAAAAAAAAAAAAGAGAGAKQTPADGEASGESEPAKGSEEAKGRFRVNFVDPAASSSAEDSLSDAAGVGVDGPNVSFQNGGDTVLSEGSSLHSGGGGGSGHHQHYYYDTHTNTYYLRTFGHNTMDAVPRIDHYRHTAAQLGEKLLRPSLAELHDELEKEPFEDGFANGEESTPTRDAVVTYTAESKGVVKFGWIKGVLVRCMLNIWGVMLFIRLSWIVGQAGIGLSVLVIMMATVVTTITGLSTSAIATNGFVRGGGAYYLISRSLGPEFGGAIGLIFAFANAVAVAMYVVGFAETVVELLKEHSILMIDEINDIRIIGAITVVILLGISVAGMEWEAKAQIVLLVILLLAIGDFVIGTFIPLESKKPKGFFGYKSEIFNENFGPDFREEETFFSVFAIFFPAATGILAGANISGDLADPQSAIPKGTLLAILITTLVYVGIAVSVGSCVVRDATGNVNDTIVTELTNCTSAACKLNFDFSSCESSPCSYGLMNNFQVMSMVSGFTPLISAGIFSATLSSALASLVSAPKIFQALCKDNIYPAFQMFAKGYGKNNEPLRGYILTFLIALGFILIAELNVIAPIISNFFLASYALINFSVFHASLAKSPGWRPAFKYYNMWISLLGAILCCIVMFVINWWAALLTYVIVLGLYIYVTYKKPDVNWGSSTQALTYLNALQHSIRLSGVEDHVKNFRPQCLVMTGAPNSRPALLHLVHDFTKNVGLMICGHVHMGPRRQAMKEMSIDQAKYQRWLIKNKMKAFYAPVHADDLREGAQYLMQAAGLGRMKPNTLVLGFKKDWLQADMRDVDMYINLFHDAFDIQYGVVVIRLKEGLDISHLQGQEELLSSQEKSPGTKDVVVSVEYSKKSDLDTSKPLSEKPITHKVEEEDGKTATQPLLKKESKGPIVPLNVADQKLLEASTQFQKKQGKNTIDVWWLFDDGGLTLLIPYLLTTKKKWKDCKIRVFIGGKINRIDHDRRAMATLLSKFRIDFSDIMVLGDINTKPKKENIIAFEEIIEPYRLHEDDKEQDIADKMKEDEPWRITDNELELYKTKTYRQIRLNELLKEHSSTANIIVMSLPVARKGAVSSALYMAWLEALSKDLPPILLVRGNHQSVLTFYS
Text: Cet effet a été étudié selon la méthodologie décrite par G. GARAY et coll. dans Naunyn-Schmidberg's Arch. Pharmakol. […] Pharm.

In the case of `Cc1ccc(O)c(CCOc2ccccc2)c1` [ex 36], the “M à 50” value [1] is reported as “inactif”, the “ACTIVITE ANTI-LIPOXYGENASE IC 50” value [2] is reported as “Inactif” and the minimal effective dose [3] is reported as 100 mg/kg. The “Variation de l'effet anti-hyper-tenseur 24 heures après produit” value [4] was “Non actif” and the IC50 [5] was > 600 µM.
